From BindingDB's records for doi:10.1016/s0960-894x(03)00792-3 (Eli Lilly, 2003)

biological target: Cyclin-dependent kinase 4/G1/S-specific cyclin-D1 (Homo sapiens, UniProt P11802); test: CDK Kinase Inhibition Assay; conditions: pH 7; 22 °C
Sequence (P11802 whole entry): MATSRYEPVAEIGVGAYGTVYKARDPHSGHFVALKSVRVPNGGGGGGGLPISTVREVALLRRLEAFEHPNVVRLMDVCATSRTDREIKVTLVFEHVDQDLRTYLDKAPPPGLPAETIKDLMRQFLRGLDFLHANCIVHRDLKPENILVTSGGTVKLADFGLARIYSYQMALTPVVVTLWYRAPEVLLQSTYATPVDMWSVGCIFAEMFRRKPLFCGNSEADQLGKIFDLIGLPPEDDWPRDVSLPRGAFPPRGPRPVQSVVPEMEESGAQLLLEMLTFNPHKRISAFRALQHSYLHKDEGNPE
Sequence (P24385 whole entry, further chain): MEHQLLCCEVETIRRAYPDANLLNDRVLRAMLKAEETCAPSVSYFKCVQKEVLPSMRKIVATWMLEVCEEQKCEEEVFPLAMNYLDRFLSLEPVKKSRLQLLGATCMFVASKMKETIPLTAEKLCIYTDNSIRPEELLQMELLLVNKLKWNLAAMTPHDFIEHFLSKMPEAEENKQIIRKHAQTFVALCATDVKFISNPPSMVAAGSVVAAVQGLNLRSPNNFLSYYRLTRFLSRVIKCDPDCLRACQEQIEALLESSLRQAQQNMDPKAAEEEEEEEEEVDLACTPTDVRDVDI

Row | Structure (SMILES) | IC50
1 | O=C1NC(=O)c2c1c1c3ccccc3n3c1c1c2c2ccccc2n1[C@H]1CC[C@@H]3O1 [28-oxa-4,14,19-triazaoctacyclo[12.11.2.1^{15,18}.0^{2,6}.0^{7,27}.0^{8,13}.0^{19,26}.0^{20,25}]octacosa-1(26),2(6),7(27),8(13),9,11,20(25),21,23-nonaene-3,5-dione] | 0.54 µM
2 | COC(=O)[C@@]1(O)C[C@H]2O[C@]1(C)n1c3ccccc3c3c4c(c5c6ccccc6n2c5c31)C(=O)NC4 | 0.03 µM

biological target: cAMP-dependent protein kinase catalytic subunit alpha (Bos taurus, UniProt P00517); test: CDK Kinase Inhibition Assay; conditions: 25 °C

Row | IC50 | Structure (SMILES)
3 | > 20 µM | Cn1c2ccccc2c2c3c(c4c5ccc(Br)cc5[nH]c4c21)C(=O)NC3=O [indolocarbazole deriv. 4(f)]
4 | > 20 µM | Cn1c2ccccc2c2c3c(c4c5ccccc5[nH]c4c21)C(=O)NC3=O [3-methyl-3,13,23-triazahexacyclo[14.7.0.0^{2,10}.0^{4,9}.0^{11,15}.0^{17,22}]tricosa-1(16),2(10),4(9),5,7,11(15),17(22),18,20-nonaene-12,14-dione]
5 | > 20 µM | COc1ccc2c(c1)[nH]c1c3[nH]c4cc(OC)ccc4c3c3c(c21)C(=O)NC3=O [6,20-dimethoxy-3,13,23-triazahexacyclo[14.7.0.0^{2,10}.0^{4,9}.0^{11,15}.0^{17,22}]tricosa-1(16),2(10),4(9),5,7,11(15),17(22),18,20-nonaene-12,14-dione]
6 | > 20 µM | Cn1cc(C2=C(c3cn(CC(O)CO)c4ccccc34)C(=O)NC2=O)c2ccccc21 (stereo unspecified) [3-[1-(2,3-dihydroxypropyl)-1H-indol-3-yl]-4-(1-methyl-1H-indol-3-yl)-2,5-dihydro-1H-pyrrole-2,5-dione]
7 | > 20 µM | CN(C)CCCn1cc(C2=C(c3c[nH]c4ccccc34)C(=O)NC2=O)c2ccccc21 [2-[1-(3-dimethylaminopropyl)-indol-3-yl]-3-(indol-3-yl)maleimide]
8 | > 20 µM | Cn1c2ccccc2c2c3c(c4c5ccc(F)cc5[nH]c4c21)C(=O)NC3=O [indolocarbazole deriv. 4(h)]
9 | > 20 µM | Cn1cc(C2=C(c3cn(C)c4ccccc34)C(=O)NC2=O)c2ccccc21 [3,4-bis(1-methyl-1H-indol-3-yl)-2,5-dihydro-1H-pyrrole-2,5-dione]
10 | > 20 µM | O=C1NC(=O)c2c1c1c3ccccc3[nH]c1c1c2c2ccccc2n1CCCO [3-(3-hydroxypropyl)-3,13,23-triazahexacyclo[14.7.0.0^{2,10}.0^{4,9}.0^{11,15}.0^{17,22}]tricosa-1(16),2(10),4(9),5,7,11(15),17(22),18,20-nonaene-12,14-dione]

Row | Structure (SMILES) | IC50
11 | O=C1NC(=O)c2c1c1c3ccccc3[nH]c1c1[nH]c3ccccc3c21 [6,7,12,13-Tetrahydro-5,7-dioxo-5H-indolo[2,3-a]pyrrolo[3,4-c]carbazole] | > 20 µM
